# Assay results reported in patent US20060142193A1, “Selective inhibition of rock1 in cardiac therapy” (BAYLOR COLLEGE OF MEDICINE, priority 2004, published 2006).
# “Also recorded” adds a separate entry of the source.
# Columns and labels:
# [1] = system: angiotensin II-infused rats; details: administration of fasudil; cited from earlier work
# caspase 3 = experiment: Ceramide-induced caspase 3 activation and apoptosis in cardiomyocytes (caspase 3 sensor, fluorescent staining); format: cell-based, rat; details: without siRNA treatment
# Description: Apoptosis assay and immunofluorescence analysis. Apoptosis was evaluated using caspase 3 activity and poly(ADP-ribose) polymerase (PARP) cleavage with Western blot in human and mouse heart tissues. With regard to apoptotic cultured neonatal cardiomyocytes, a caspase 3 sensor (BD Biosciences) was introduced to detect the onset of caspase 3 activity (FIG. 9). The vector encodes EYFP (enhanced yellow fluorescent protein) fused with NES (nuclear export signal) and NLS (nuclear localization signal). A caspase 3 specific cleavage site is located between EYFP and NES. […] Upon induction of apoptosis, the export signal is removed by active caspase 3, which triggers the redistribution of EYFP from the cytosol to the nucleus via NLS. The quantification was performed by counting the number of transfected cells with the nuclear localization of fluorescent fusion protein over the total transfected cells. Alexa Fluor 594 phalloidin staining (Molecular Probes) and DAPI staining were applied for F-actin and cellular nuclei visualization, respectively.
# siRNAs application for ROCK-1 and PTEN knockdown and ceramide-induced apoptosis. To knockdown ROCK-1 expression in neonatal rat cardiomyocytes, 100 nM siRNA (Ambion) was used with co-transfection of caspase 3 sensor vector as described above. Same amount of siRNA specific for PTEN (Ambion) was applied to human HEK cells. […]
# [2] = system: human growth hormone (hGH) transgene; experiment: Cardiac-specific RU486-inducible gene-switch expression of human growth hormone in bi-transgenic mice; format: in vivo, mouse; details: after 4 days of administration, dose-dependent, estimated
# Description: Expression of the transgene is induced in all 4 chambers of the bi-transgenic hearts by administration of RU486 for 4 days. […] The serum level of hGH was measured by radioimmunoassay.
# [3] = system: conditional caspase 3 (iCasp3); experiment: ROCK1 cleavage in cardiomyocytes infected with Ad-G/iCasp3 (conditional caspase 3) and treated with CID; format: cell-based, rat; details: for 130 kDa cleavage fragment of ROCK1: cardiomyocytes infected with Ad-G/iCasp3 and treated with CID
# Excerpt: To analyze direct effect of caspase 3 activation on ROCK1 cleavage, the present inventors introduced a conditional caspase 3 via an adenoviral-mediated expression system in cultured rat neonatal cardiomyocytes. The adenoviral vector, Ad-G/iCasp3, has been described previously (Shariat et al., 2001; Mallet et al., 2002). This vector expresses a conditional caspase 3 (iCasp3), in which the human caspase 3 was fused to a modified FK506-binding domain, containing a binding site for a non-toxic chemical inducer of dimerization (CID), AP20187. Addition of CID leads to the aggregation and activation this caspase, and a rapid apoptosis in prostate cancer cells (Shariat et al., 2001; Mallet et al., 2002). This is depicted in FIG. 8C.
# Cell culture, plasmid constructs, and recombinant adenoviruses. Neonatal rat cardiomyocytes were isolated and cultured in DMEM/F12 medium (1:1) with 10% horse serum (DF10); cells were ready for transfection or virus infection 40 hours after plating. For immunostaining, cells were cultured on pre-coated (with 0.2% gelatin) coverslips. Transfections were performed using LipofectAMINE 2000 (Invitrogen) with Opti-MEM I Reduced Serum Medium (Invitrogen). After 6 hr or O/N, cells were cultured in DF10. With human embryonic kidney (HEK) A293T cells, cells were cultured in DMEM with 10% fetal bovine serum. The cDNA for full length human ROCK-1 cloned into the pCAG-myc vector (pCAG-ROCK-1) was kindly provided by Dr. Narumiya. All ROCK-1 and mutant constructs were tagged with a Myc epitope at the amino-terminus. The Asp718-MscI cDNA fragment encoding ROCKΔ1 mutant (residues 1-1080) was also cloned into the pCAG-myc vector (pCAG-ROCKΔ1) (Ishizaki et al., 1997). A signal lysine at residue 105 was replaced by alanine to generate a kinase deficient mutant, pCAG-ROCK-1KD. The adenoviral vector, Ad-G/iCasp 3, expressing conditional caspase 3, was generously provided by Drs. David Spencer and Kevin Slawin at Baylor College of Medicine. […]
# ROCK1 = ROCK1 cleavage in doxorubicin-treated cultured neonatal rat cardiomyocytes (Western blot); format: cell-based
# Excerpt: To determine if ROCK1 is cleaved by caspase 3 in apoptotic cardiomyocytes, the present inventors subjected cultured rat neonatal cardiomyocytes to doxorubicin treatment, which is a potent apoptotic inducer. The 130 kDa cleavage fragment of ROCK1 was detected in doxorubicin-treated myocytes as well as the cleaved PARP. In contrast, cleavage of ROCK2 was not observed. In addition, cleavage of ROCK1 is caspase 3-dependent, as the 130 kDa species was not detected in the presence of caspase 3 inhibitor, Z-VAD.
# Cell culture, plasmid constructs, and recombinant adenoviruses. Neonatal rat cardiomyocytes were isolated and cultured in DMEM/F12 medium (1:1) with 10% horse serum (DF10); cells were ready for transfection or virus infection 40 hours after plating. For immunostaining, cells were cultured on pre-coated (with 0.2% gelatin) coverslips. Transfections were performed using LipofectAMINE 2000 (Invitrogen) with Opti-MEM I Reduced Serum Medium (Invitrogen). After 6 hr or O/N, cells were cultured in DF10. With human embryonic kidney (HEK) A293T cells, cells were cultured in DMEM with 10% fetal bovine serum. The cDNA for full length human ROCK-1 cloned into the pCAG-myc vector (pCAG-ROCK-1) was kindly provided by Dr. Narumiya. All ROCK-1 and mutant constructs were tagged with a Myc epitope at the amino-terminus. The Asp718-MscI cDNA fragment encoding ROCKΔ1 mutant (residues 1-1080) was also cloned into the pCAG-myc vector (pCAG-ROCKΔ1) (Ishizaki et al., 1997). A signal lysine at residue 105 was replaced by alanine to generate a kinase deficient mutant, pCAG-ROCK-1KD. The adenoviral vector, Ad-G/iCasp 3, expressing conditional caspase 3, was generously provided by Drs. David Spencer and Kevin Slawin at Baylor College of Medicine. Addition of CID, AP20187 (50 nM, 24 hr), provoked the aggregation and activation of caspase 3 as well as rapid apoptosis (Shariat et al., 2001; Mallet et al., 2002).
# Western blot and Malachite green assay. Anti-ROCK-1, caspase 3, PARP, His, α-actin antibodies (Santa Cruz), anti-phospho-AKTser473 (Cell Signaling) and anti-RTEN (Upstate) were purchased. Protein samples for Western blot were prepared and separated as described earlier (Chang et al., 2000). Even loadings were confirmed by Ponceau staining and antibody probed for actin. PTEN activity was evaluated by Malachite green assay (Upstate). 500 μg of cell lysate protein was used for immunoprecipitation.
# [4] = system: myeline basic protein (MBP) kinase (MBP-kinase); experiment: Kinase-Glo luminescent kinase assay; format: biochemical; details: SRF-N as substrate, ATP
# Description: In a particular embodiment, the Kinase-Glo luminescent kinase assay from Promega (Madison, Wis.) is employed, which comprises a method of measuring kinase activity by quantifying the amount of ATP remaining in solution following a kinase reaction. […] In additional embodiments, the Km and/or kcat for SRF-N against MBP-Kinase and the IC50 or Ki for PH domain are measured, such as by standard methods in the art.
# FIG. 25B illustrates the role of ROCK in processing of its substrates in the presence of ATP.
# protein kinases A and C = details: lower affinity than that for Rho kinase; cited from earlier work
# [5] = system: Dahl salt-sensitive hypertensive rats; details: administration to Dahl salt-sensitive hypertensive rats; cited from earlier work
# early chick embryos = details: treated early chick embryos; cited from earlier work
# [6] = doxorubicin-treated myocytes, Western blot
compound,measurement,setting,value
O=S(=O)(c1cccc2cnccc12)N1CCCNCC1 [fasudil],effect on angiotensin II-induced cardiovascular changes,[1],"suppresses angiotensin II-induced coronary vascular hypertrophy, endothelial dysfunction and cardiomyocyte hypertrophy"
ceramide,induction of caspase 3 activation and cellular apoptosis,caspase 3,strongly induced caspase 3 activation
CC#C[C@]1(O)CC[C@H]2[C@@H]3CCC4=CC(=O)CCC4=C3[C@@H](c3ccc(N(C)C)cc3)C[C@@]21C [RU486],inducible level of hGH in the transgenic heart versus the basal level,[2],100 to 1000 fold
CC[C@H](C(=O)N1CCCC[C@H]1C(=O)O[C@H](CCc1ccc(OC)c(OC)c1)c1cccc(OCC(=O)NCC(CNC(=O)COc2cccc([C@@H](CCc3ccc(OC)c(OC)c3)OC(=O)[C@@H]3CCCCN3C(=O)[C@@H](CC)c3cc(OC)c(OC)c(OC)c3)c2)CN(C)C)c1)c1cc(OC)c(OC)c(OC)c1 [AP20187],cleavage of SRF,"[3]; Ad-G/iCasp3 in the presence of CID, data not shown",not detectable
same,130 kDa cleavage fragment of ROCK1,[3],detected
same,130 kDa cleavage fragment of ROCK1,[3]; listed as CID,cleavage of ROCK-1 only in the presence of CID
COc1cccc2c1C(=O)c1c(O)c3c(c(O)c1C2=O)C[C@@](O)(C(=O)CO)C[C@@H]3O[C@H]1C[C@H](N)[C@H](O)[C@H](C)O1 [doxorubicin],cleavage of ROCK2,ROCK1; doxorubicin-treated myocytes,not observed
same,130 kDa cleavage fragment of ROCK1,ROCK1; [6],detected; also recorded: revealed cleavages
same,cleaved PARP,ROCK1; [6],detected; also recorded: revealed cleavages
same,cleavage of SRF,"ROCK1; doxorubicin-treated neonatal cardiomyocytes, data not shown",not detectable
C[C@@H](N)[C@H]1CC[C@H](C(=O)Nc2ccncc2)CC1 [Y27632],inhibition activity against MBP-kinase,[4],inhibition activity
same,affinity for protein kinases A and C relative to Rho kinase,protein kinases A and C,about 200 times
same,effect on cardiac hypertrophy and remodeling,[5],regression of cardiac hypertrophy and decreased pathological remodeling
same,expression of cardiac α-actin (early cardiac differentiation marker),early chick embryos,precocious expression of cardiac α-actin was observed
Z-VAD,130 kDa ROCK1 species in presence of caspase 3 inhibitor,ROCK1; doxorubicin-treated myocytes plus inhibitor,not detected; also recorded: blocked the cleavage
